In patent publication US11279733B2, “Peptide antibiotics” (priority 2017, dated 2022):
Converted amounts (≈) assume the structure as drawn. Like-named read-outs stand apart in the source and are kept apart here. Positions of bridges follow the written chain, without caps; N, C: chain ends. Non-standard residues stand in square brackets, D forms with d. Residues, ends and D or L forms follow the SMILES beside them. *: point of attachment. Decanoyl(3R-OH) = CCCCCCC[C@@H](O)CC(=O)*; dPhe(4-NH2) = Nc1ccc(C[C@@H](N)C(=O)O)cc1; d3Pal = N[C@H](Cc1cccnc1)C(=O)O; Dab = NCC[C@H](N)C(=O)O; Dap = NC[C@H](N)C(=O)O

Assays:
[1] = test system: A. baumannii ATCC 19606; conditions: ATCC 19606
In short: (§1)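 Mid-log cultures grown in Mueller Hinton broth at 37° C were tested by 2-fold broth microdilution at 5×10^5 CFU/mL final. Compounds were dissolved in water and tested over a final range of 32 to 0.015 μg/mL.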

[2] = test system: P. aeruginosa GN_043, PmxR
In short: as §1

[3] = test system: E. coli ATCC 25922; conditions: ATCC 25922
In short: as §1

[4] = test system: K. pneumoniae ATCC 700603, MDR; conditions: ATCC 700603
In short: as §1

[5] = test system: K. pneumoniae ATCC 13883; conditions: ATCC 13883
In short: as §1

[6] = test system: P. aeruginosa ATCC 27853; conditions: ATCC 27853
In short: as §1

[7] = test system: K. pneumoniae GN_106, PmxR; conditions: GN 106, PmxR
In short: as §1

[8] = test system: S. aureus ATCC 25923, MSSA; conditions: ATCC 25923
In short: as §1

[9] = test system: A. baumannii GN_093 PmxR; conditions: GN 093 PmxR
In short: as §1

[10] = test system: K. pneumoniae GN_102 PmxR; conditions: GN 102 PmxR
In short: as §1

[11] = test system: K. pneumoniae ATCC BAA-2146, NDM-1 pos; conditions: ATCC BAA-2146
In short: as §1

[12] = test system: P. aeruginosa GN_105, PmxR; conditions: GN 105, PmxR
In short: as §1

[13] = in vitro; conditions: human
In short: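 Viability is measured by resazurin reduction (5 μM, 2 h, 37 °C) after cells seeded at 4000 per well are treated with compound for 24 h.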

CCCCCCC[C@@H](O)CC(=O)N[C@@H](CCN)C(=O)N[C@H]1CCNC(=O)[C@H](CC(C)C)NC(=O)[C@H](CN)NC(=O)[C@H](CCN)NC(=O)[C@H](CC(C)C)NC(=O)[C@@H](Cc2ccccc2)NC(=O)[C@H](CCN)NC1=O [compound 5564, 3(R)OH-nC9CO-L-Dab-cyc[L-Dab-L-Dab-D-Phe-L-Leu-L-Dab-L-Dap-L-Leu]] ({Decanoyl(3R-OH)}-[Dab][Dab][Dab][dF]L[Dab][Dap]L; lactam 2-C)
MIC A. baumannii ATCC 19606 [1]: >32 µg/mL | MIC P. aeruginosa GN_043, PmxR ([2]; polymyxin-resistant): 2 µg/mL (≈ 1.94 µM) | MIC E. coli ATCC 25922 [3]: 8 µg/mL (≈ 7.76 µM) | MIC K. pneumoniae ATCC 700603, MDR [4]: 16 µg/mL (≈ 15.5 µM) | MIC K. pneumoniae ATCC 13883 [5]: 8 µg/mL (≈ 7.76 µM) | MIC P. aeruginosa ATCC 27853 [6]: 2 µg/mL (≈ 1.94 µM) | MIC K. pneumoniae GN_106, PmxR [7]: 8 µg/mL (≈ 7.76 µM) | MIC S. aureus ATCC 25923, MSSA [8]: 32 µg/mL (≈ 31.1 µM) | MIC A. baumannii GN_093 PmxR [9]: 32 µg/mL (≈ 31.1 µM) | MIC K. pneumoniae GN_102 PmxR [10]: 4 µg/mL (≈ 3.88 µM) | MIC K. pneumoniae ATCC BAA-2146, NDM-1 pos [11]: 8 µg/mL (≈ 7.76 µM) | MIC P. aeruginosa GN_105, PmxR [12]: 32 µg/mL (≈ 31.1 µM) | CC50 at 24 h [13]: > 300 µM

CCCCCCC[C@@H](O)CC(=O)N[C@H](Cc1ccc(N)cc1)C(=O)N[C@H]1CCNC(=O)[C@H](CC(C)C)NC(=O)[C@H](CCN)NC(=O)[C@H](CCN)NC(=O)[C@H](Cc2ccccc2)NC(=O)[C@@H](CC(C)C)NC(=O)[C@H](CCN)NC1=O [compound 6429, 3(R)OH-nC9CO-D-4NH2Phe-cyc[L-Dab-L-Dab-D-Leu-L-Phe-L-Dab-L-Dab-L-Leu]] ({Decanoyl(3R-OH)}-[dPhe(4-NH2)][Dab][Dab][dL]F[Dab][Dab]L; lactam 2-C)
MIC A. baumannii ATCC 19606 [1]: 32 µg/mL (≈ 28.9 µM) | MIC P. aeruginosa GN_043, PmxR ([2]; P. aeruginosa GN_043, PmxR): 16 µg/mL (≈ 14.5 µM) | MIC E. coli ATCC 25922 [3]: 16 µg/mL (≈ 14.5 µM) | MIC K. pneumoniae ATCC 700603, MDR [4]: 8 µg/mL (≈ 7.23 µM) | MIC K. pneumoniae ATCC 13883 [5]: 16 µg/mL (≈ 14.5 µM) | MIC P. aeruginosa ATCC 27853 [6]: 32 µg/mL (≈ 28.9 µM) | MIC K. pneumoniae GN_106, PmxR [7]: 8 µg/mL (≈ 7.23 µM) | MIC S. aureus ATCC 25923, MSSA [8]: >32 µg/mL | MIC A. baumannii GN_093 PmxR [9]: >32 µg/mL | MIC K. pneumoniae GN_102 PmxR [10]: 8 µg/mL (≈ 7.23 µM) | MIC K. pneumoniae ATCC BAA-2146, NDM-1 pos [11]: 16 µg/mL (≈ 14.5 µM) | MIC P. aeruginosa GN_105, PmxR [12]: 32 µg/mL (≈ 28.9 µM) | CC50 at 24 h [13]: > 300 µM

CCCCCCC[C@@H](O)CC(=O)N[C@H](Cc1cccnc1)C(=O)N[C@H]1CCNC(=O)[C@H](CC(C)C)NC(=O)[C@H](CCN)NC(=O)[C@H](CCN)NC(=O)[C@H](Cc2ccccc2)NC(=O)[C@@H](CC(C)C)NC(=O)[C@H](CCN)NC1=O [compound 6430, 3(R)OH-nC9CO-D-3PyPhe-cyc[L-Dab-L-Dab-D-Leu-L-Phe-L-Dab-L-Dab-L-Leu]] ({Decanoyl(3R-OH)}-[d3Pal][Dab][Dab][dL]F[Dab][Dab]L; lactam 2-C)
MIC A. baumannii ATCC 19606 [1]: 32 µg/mL (≈ 29.3 µM) | MIC P. aeruginosa GN_043, PmxR ([2]; P. aeruginosa GN_043, PmxR): 16 µg/mL (≈ 14.6 µM) | MIC E. coli ATCC 25922 [3]: 16 µg/mL (≈ 14.6 µM) | MIC K. pneumoniae ATCC 700603, MDR [4]: 8 µg/mL (≈ 7.32 µM) | MIC K. pneumoniae ATCC 13883 [5]: 16 µg/mL (≈ 14.6 µM) | MIC P. aeruginosa ATCC 27853 [6]: 32 µg/mL (≈ 29.3 µM) | MIC K. pneumoniae GN_106, PmxR [7]: 4 µg/mL (≈ 3.66 µM) | MIC S. aureus ATCC 25923, MSSA [8]: >32 µg/mL | MIC A. baumannii GN_093 PmxR [9]: >32 µg/mL | MIC K. pneumoniae GN_102 PmxR [10]: 8 µg/mL (≈ 7.32 µM) | MIC K. pneumoniae ATCC BAA-2146, NDM-1 pos [11]: 16 µg/mL (≈ 14.6 µM) | MIC P. aeruginosa GN_105, PmxR [12]: 32 µg/mL (≈ 29.3 µM) | CC50 at 24 h [13]: > 300 µM

CCCCCCC[C@@H](O)CC(=O)NCC(=O)N[C@H]1CCNC(=O)[C@H](CC(C)C)NC(=O)[C@H](CCN)NC(=O)[C@H](CCN)NC(=O)[C@H](Cc2ccccc2)NC(=O)[C@@H](CC(C)C)NC(=O)[C@H](CCN)NC1=O [compound 6431, 3(R)OH-nC9CO-Gly-cyc[L-Dab-L-Dab-D-Leu-L-Phe-L-Dab-L-Dab-L-Leu]] ({Decanoyl(3R-OH)}-G[Dab][Dab][dL]F[Dab][Dab]L; lactam 2-C)
MIC A. baumannii ATCC 19606 [1]: 32 µg/mL (≈ 32 µM) | MIC P. aeruginosa GN_043, PmxR ([2]; P. aeruginosa GN_043, PmxR): 8 µg/mL (≈ 7.99 µM) | MIC E. coli ATCC 25922 [3]: 16 µg/mL (≈ 16 µM) | MIC K. pneumoniae ATCC 700603, MDR [4]: 8 µg/mL (≈ 7.99 µM) | MIC K. pneumoniae ATCC 13883 [5]: 8 µg/mL (≈ 7.99 µM) | MIC P. aeruginosa ATCC 27853 [6]: 8 µg/mL (≈ 7.99 µM) | MIC K. pneumoniae GN_106, PmxR [7]: 4 µg/mL (≈ 3.99 µM) | MIC S. aureus ATCC 25923, MSSA [8]: >32 µg/mL | MIC A. baumannii GN_093 PmxR [9]: 32 µg/mL (≈ 32 µM) | MIC K. pneumoniae GN_102 PmxR [10]: 2 µg/mL (≈ 2 µM) | MIC K. pneumoniae ATCC BAA-2146, NDM-1 pos [11]: 8 µg/mL (≈ 7.99 µM) | MIC P. aeruginosa GN_105, PmxR [12]: 4 µg/mL (≈ 3.99 µM) | CC50 at 24 h [13]: > 300 µM
